Results: patent publication US7666900B2, “ABCA1 stabilizer” (Hykes Laboratories LLC, priority 2004, dated 2010)

Key:
ABCA1 = ABCA1 expression in THP-1 cells (immunoblotting of total membrane fraction); type: cell-based, human; conditions: for ABCA1 Expression Level (Relative Ratio %): PMA-differentiated THP-1 macrophages, compound incorporated into acetyl-LDL, 48 h then 24 h with or without apoAI, non-treated cells = 100; for intracellular ABCA1 expression level compared with non-treated cells (in words): THP-1 cells
Protocol: (§1) THP-1 cells (human leukemia cells: American Type Culture Collection) were cultured for 72 hours in a 10% FBS-RPMI1640 medium (Iwaki Glass Co., Ltd.) under the presence of PMA (phorbol myristate acetate, 3.2×10^−7 M: Wako Pure Chemical Industries, Ltd.) to obtain differentiated macrophages. Probucol spiroquinone (Synthesis Example 1), probucol diphenoquinone (Synthesis Example 2), or probucol bisphenol (Synthesis Example 3) was added to a medium after being incorporated into acetyl-LDL according to a method of Tsujita, et al. [BIOCHEMISTRY, 35, 13011-13020 (1996)]. The cells were cultured in this medium for 48 hours, and then further cultured for 24 hours in the presence or absence of apoAI. The expression levels of intracellular ABCA1 were assayed according to a method disclosed herein below.
The agent-treated cells and non-treated cells were hypotonically disrupted in 5 mM Tris-HCl (pH 8.5), and then centrifuged (650 g for 5 minutes) to precipitate nuclear fractions. The supernatant was centrifuged at 105,000 g for 30 minutes to collect a total membrane fraction. The total membrane was dissolved in a solution containing 0.9 M urea, 0.2% Triton X-100, and 0.1% dithiothreitol, followed by addition of 10% lithium dodecyl sulfate solution at a volume ratio of 1/4. The resultant was subjected to electrophoretic separation using 10% SDS-7% polyacrylamide gel. The separated proteins were transferred and fixed onto PVDF membrane (Bio-Rad), and then subjected to immunoblotting with anti-human ABCA1 rabbit antibody (self-purified by an ordinary technique) to examine expressed ABCA1 protein levels. The obtained bands of the protein were read for density and size with Scion Image (image analysis software: Scion) to convert the results into digitized forms. The relative ratio of the ABCA1 expression level of the drug-treated cells to that of the non-treated cells was calculated to evaluate the ABCA1-expression activity of the assayed compounds.

[1] = Toxicity test, oral administration to mice for one week; type: in vivo
From the text: Probucol spiroquinone, probucol diphenoquinone, and probucol bisphenol were orally administered to mice for one week.

THP-1 cells = test: apoAI-dependent HDL-generating reaction in THP-1 cells (cholesterol and phospholipid taken out into the medium); type: cell-based, human; conditions: for Release of HDL Cholesterol (Relative Ratio %) / Release of Phospholipid (Relative Ratio %): apoAI-dependent, non-treated cells = 100
Protocol: as §1
The cultured cells obtained in the same manner as in Assay Example 1 were examined for cholesterol and phospholipid taken out into the medium by the apoAI-dependent HDL-generating reaction, according to a method of Arakawa, et al. [J. LIPID RES., 41, 1952-1962, (2000)]. The results of the drug-treated cells were compared with that of non-treated cells (control). The resulting data were converted into digitized forms as in Assay Example 1, and the relative ratios of the taken out level in the drug-treated cells to that in the non-treated cells were calculated to evaluate the HDL-generating reaction accelerated by the assayed compounds. For comparison, the HDL-generating reaction accelerated by probucol (Wako Pure Chemical Industries, Ltd.) was examined in the same manner as aforementioned.

[2] = Increase of blood HDL level (rabbit), intravenous microemulsion; type: in vivo; conditions: i.v. microemulsion once a day for 7 days, control = 100
Protocol: The microemulsion (0.5 to 10 mL/body) was administered to each group of 4 rabbits via the ear vein once a day for 7 days. To a control group, a microemulsion containing no test drug was administered in the same manner. Blood was collected in the presence of heparin sodium from the ear vein of each rabbit at 3 hours after the last administration. The blood was centrifuged at 2000 g for 10 minutes to separate plasma. The plasma was applied to electrophoresis using Paragon Electrophoresis System (Beckman Coulter, Inc.) to separate plasma lipoprotein, followed by lipid staining. The images on the gel after the lipid staining were examined to covert the plasma HDL level of each rabbit into a digitized form for the evaluation. In reference to the content amount of each compound in the microemulsion, each blood compound level assumed just after the intravenous administration thereof was set as the dose of each compound.

[3] = Increase of blood HDL level (mouse), oral administration; type: in vivo; conditions: for Plasma HDL Level (Relative Ratio %): 3 hours after last administration, control = 100
Protocol: Probucol spiroquinone (Synthesis Example 1: 50 mg/kg or 150 mg/kg) or probucol diphenoquinone (Synthesis Example 2: 50 mg/kg or 150 mg/kg) suspended in a 0.5% carboxymethylcellulose solution was orally administered to each group of 3 or 4 mice once a day for 7 days. To a control group, only the 0.5% carboxymethylcellulose solution was administered in the same manner. Animals were subjected to laparotomy under ether anesthesia at 3 hours after the last administration, and blood was collected in the presence of heparin sodium from the heart of each mouse. The blood was centrifuged at 2000 g for 10 minutes to separate plasma. The plasma was applied to electrophoresis using Paragon Electrophoresis System (Beckman Coulter, Inc.) to separate plasma lipoprotein, followed by lipid staining. The images on the gel after the lipid staining were examined to covert the plasma HDL level of each mouse into a digitized form for the evaluation.

[4] = dose as assumed blood level 0.14 μM
[5] = dose as assumed blood level 0.57 μM
[6] = 50 mg/kg orally once a day for 7 days
[7] = 150 mg/kg orally once a day for 7 days

| SMILES | ABCA1 Expression Level (Relative Ratio %) (ABCA1) [%] | intracellular ABCA1 expression level compared with non-treated cells (in words) (ABCA1) | findings in toxicity test [1] | Release of HDL Cholesterol (Relative Ratio %) (THP-1 cells) [%] | Release of Phospholipid (Relative Ratio %) (THP-1 cells) [%] | Plasma HDL Level (Relative Ratio %) [2, 4] [%] | Plasma HDL Level (Relative Ratio %) [2, 5] [%] | apoAI-dependently taken out HDL cholesterol (in words) (THP-1 cells) | level of taken out phospholipid as fraction of non-treated cells (THP-1 cells) | Plasma HDL Level (Relative Ratio %) [3, 6] [%] | Plasma HDL Level (Relative Ratio %) [3, 7] [%] | Plasma HDL Level (Relative Ratio %) ([2]; dose as assumed blood level 0.16 μM) [%] | Plasma HDL Level (Relative Ratio %) ([2]; dose as assumed blood level 0.31 μM) [%] | plasma HDL level increase compared with control group ([3]; 50 or 150 mg/kg orally once a day for 7 days) |
| --- | --- | --- | --- | --- | --- | --- | --- | --- | --- | --- | --- | --- | --- | --- |
| CC(C)(C)c1cc(-c2cc(C(C)(C)C)c(O)c(C(C)(C)C)c2)cc(C(C)(C)C)c1O [Probucol bisphenol, 4,4′-dihydroxy-3,5,3′,5′-tetra-t-butyldiphenyl] | 153 | remarkably elevated | no abnormal findings were observed | 137 | 144 | 145 | 135 |  |  |  |  |  |  |  |
| CC(C)(Sc1cc(C(C)(C)C)c(O)c(C(C)(C)C)c1)Sc1cc(C(C)(C)C)c(O)c(C(C)(C)C)c1 [Probucol, 4,4′-(isopropylidenedithio)bis(2,6-di-t-butylphenol), reference compound] |  |  |  | 0 | 34 |  |  | no apoAI-dependently taken out HDL cholesterol was observed | less than ⅓ |  |  |  |  |  |
| CC(C)(C)C1=CC(=C2C=C(C(C)(C)C)C(=O)C(C(C)(C)C)=C2)C=C(C(C)(C)C)C1=O [Probucol diphenoquinone, 3,5,3′,5′-tetra-t-butyl-4,4′-diphenoquinone] | 173 | remarkably elevated | no abnormal findings were observed | 159 | 200 |  |  |  |  | 113 | 180 | 148 | 130 |  |
| CC1(C)SC2(C=C(C(C)(C)C)C(=O)C(C(C)(C)C)=C2)C2(C=C(C(C)(C)C)C(=O)C(C(C)(C)C)=C2)S1 [Probucol spiroquinone, 2,4,9,11-tetrakis(1,1-dimethylethyl)-14,14-dimethyl-13,15-dithiadispiro[5.0.5.3]pentadeca-1,4,8,11-tetraene-3,10-dione] | 191 | remarkably elevated | no abnormal findings were observed | 148 | 151 | 157 | 194 |  |  | 120 | 124 |  |  | about 1.2 times |
